Reference: patent US8486991B2, “Enantiomerically pure phosphoindoles as HIV inhibitors” (Idenix Pharmaceuticals, Inc., priority 2006, dated 2013)
Where “and” joins values, the source holds several entries; their conditions need not be identical. Equal values may be shown once. Read-outs that look alike come from different tables or passages of the source.

How the values were obtained:
[1] = system: HIV-1 K103N clinical isolates 4937 and 5002; assay: microbe, parasite or virus in culture; assay type: cell-based; conditions: Human immunodeficiency virus 1, PBMC, read-out: Average EC50 Values ± Standard Deviation, K103N
[2] = system: HIV-1 IIIB in MOLT-4 cells; assay: Drug susceptibility assay, IIIB in MOLT-4 cells; assay type: cell-based; conditions: Human immunodeficiency virus 1, IIIB
Text: The virus and host-cell dependency of Compound I, Compound III and control drugs was further examined in drug susceptibility assays performed across 3 different subtype B wild-type HIV-1 strains and 5 different cell lines.

[3] = Cellular cytotoxicity, 4 days, MTS, U937; assay type: cell-based; conditions: human, Table 21, read-out: Average CC50 Values ± Standard Deviation, U937
Procedure: (§1) Cell viability was measured by standard MTT or MTS staining.
Following drug exposure for 4 days, cell viability was measured by MTS staining and CC50 values were determined. Drug concentrations ranged from 0.005 μM to 100 μM.

HIV-1 NL4-3 K103N virus = assay: microbe, parasite or virus in culture; assay type: cell-based; conditions: for EC50: Human immunodeficiency virus 1, NL43, MT4, read-out: Average EC50 Values ± Standard Deviation, K103N; for Fold Change, K103N: Table 11, NL4-3
[4] = Longer term cytotoxicity, 12 days, MTS, HuH7; conditions: human
Procedure: as §1
(§2) Cells were repeatedly treated with a range of drug concentrations (0.005 to 100 μM) for 9 (HeLa) or 12 days (HuH7, HepG2).

[5] = biological target: T1, human DNA polymerase alpha (Homo sapiens, UniProt P09884); assay: Human cellular DNA polymerase alpha assay; assay type: biochemical
T1 sequence (P09884 1-1462): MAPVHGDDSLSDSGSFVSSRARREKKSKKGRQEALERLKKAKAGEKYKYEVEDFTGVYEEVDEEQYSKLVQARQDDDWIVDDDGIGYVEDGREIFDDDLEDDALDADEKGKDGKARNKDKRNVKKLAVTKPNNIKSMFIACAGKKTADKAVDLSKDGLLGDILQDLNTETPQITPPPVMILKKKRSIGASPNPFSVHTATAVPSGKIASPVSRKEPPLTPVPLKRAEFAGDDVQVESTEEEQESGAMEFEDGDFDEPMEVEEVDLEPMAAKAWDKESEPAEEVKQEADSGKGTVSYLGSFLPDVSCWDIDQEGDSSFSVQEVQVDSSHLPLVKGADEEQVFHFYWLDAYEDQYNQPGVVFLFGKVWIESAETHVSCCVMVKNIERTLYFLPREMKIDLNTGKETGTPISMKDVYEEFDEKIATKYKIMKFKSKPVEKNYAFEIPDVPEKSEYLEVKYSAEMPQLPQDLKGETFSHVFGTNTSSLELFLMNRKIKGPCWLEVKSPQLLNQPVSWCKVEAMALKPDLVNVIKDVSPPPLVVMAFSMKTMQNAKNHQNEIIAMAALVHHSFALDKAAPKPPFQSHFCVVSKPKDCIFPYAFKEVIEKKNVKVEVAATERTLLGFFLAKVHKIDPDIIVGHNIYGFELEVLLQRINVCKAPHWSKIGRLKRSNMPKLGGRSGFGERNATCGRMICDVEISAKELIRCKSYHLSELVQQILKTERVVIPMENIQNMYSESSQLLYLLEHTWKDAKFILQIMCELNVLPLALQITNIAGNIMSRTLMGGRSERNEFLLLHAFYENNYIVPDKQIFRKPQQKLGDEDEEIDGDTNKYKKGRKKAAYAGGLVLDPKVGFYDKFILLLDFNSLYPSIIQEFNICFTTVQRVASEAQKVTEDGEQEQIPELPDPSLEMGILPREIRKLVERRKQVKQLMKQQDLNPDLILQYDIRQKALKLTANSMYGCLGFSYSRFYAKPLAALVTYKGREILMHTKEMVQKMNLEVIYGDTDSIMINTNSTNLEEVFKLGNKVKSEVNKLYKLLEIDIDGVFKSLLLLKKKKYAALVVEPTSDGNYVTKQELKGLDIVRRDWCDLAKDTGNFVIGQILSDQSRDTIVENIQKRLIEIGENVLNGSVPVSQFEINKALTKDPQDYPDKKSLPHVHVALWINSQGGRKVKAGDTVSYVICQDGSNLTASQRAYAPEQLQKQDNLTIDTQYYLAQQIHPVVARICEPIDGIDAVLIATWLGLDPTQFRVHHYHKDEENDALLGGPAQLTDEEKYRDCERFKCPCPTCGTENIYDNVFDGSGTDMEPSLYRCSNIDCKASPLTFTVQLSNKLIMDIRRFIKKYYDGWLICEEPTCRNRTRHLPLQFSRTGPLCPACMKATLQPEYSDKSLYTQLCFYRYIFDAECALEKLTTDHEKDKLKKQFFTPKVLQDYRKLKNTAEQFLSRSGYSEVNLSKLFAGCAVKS
Text: HIV RT, like other viral polymerase, shares limited structural homology with the cellular DNA polymerases responsible for normal nuclear and mitochondrial DNA synthesis and repair. This raises the formal possibility that inhibitors of HIV RT might inhibit cellular polymerases, resulting in cellular toxicity. In particular, inhibition of polymerase gamma has the potential to result in mitochondrial toxicity. The ability of Compound I and Compound III to inhibit cellular DNA polymerases was assessed using standard in vitro assays (Table 5).

[6] = system: HIV-1 BH10 wild-type virus; assay: microbe, parasite or virus in culture; assay type: cell-based; conditions: for Fold Change, W.T.: Table 7, EC50 mutant / EC50 wild-type
[7] = Longer term cytotoxicity, 12 days, MTS, HepG2; conditions: human
Procedure: as §1, §2

[8] = biological target: site-directed mutant HIV-1 RT enzymes; assay: HIV-1 RT enzyme assay, whole panel (ranges); assay type: biochemical; conditions: for IC50: Table 3, range over W.T. and 7 mutant enzymes; for Mean Activity Range (fold-resistance): Table 4, range of fold changes over the panel
Text: In Vitro Antiviral Activity Against Additional Mutant HIV RT Enzymes
The studies are summarized in the text that follows.

[9] = Human immunodeficiency virus 1, MT4, 96 h, read-out: mean EC50, wild-type BH10 virus in MT-4 cells, p24 ELISA, 4 day
[10] = Human immunodeficiency virus 1, MT4, read-out: Average EC50 Values ± Standard Deviation, host MT-4, virus BH10, Table 17
[11] = read-out: mean EC50, wild-type BH10 virus in MT-4 cells, p24 ELISA, 4 day
[12] = MOLT-4, Table 17, read-out: Average EC50 Values ± Standard Deviation, host MOLT-4, virus IIIB
[13] = U-937 cells (monocytes derived from a histiocytic lymphoma)
[14] = Table 5, read-out: Average IC50 Values ± Standard Deviation, DNA Pol Alpha

SMILES	EC50 [1] [nM]	EC50 (HIV-1 NL4-3 K103N virus) [nM]	Fold Change, K103N (HIV-1 NL4-3 K103N virus) [fold]	Average IC50 Values ± Standard Deviation, DNA Pol Alpha ([5]; Table 5)	EC50 [6, 9] [nM]	EC50 [6, 10] [nM]	Fold Change, W.T. [6] [fold]	EC50 [6, 11]	IC50 [8] [nM]	Mean Activity Range (fold-resistance) [8] [µM]	EC50 [2, 12] [nM]	CC50 at 4 days [3, 13] [nM]	CC50 at 12 days ([4]; HuH7 liver cells) [nM]	IC50 [5, 14] [nM]	CC50 at 12 days ([7]; HepG2 liver cells) [nM]	further results
CO[P@](=O)(c1cc(C)cc(/C=C/C#N)c1)c1c(C(N)=O)[nH]c2ccc(Cl)c(F)c12 [Compound I, (2-Carbamoyl-5-chloro-4-fluoro-1H-indol-3-yl)-[3-((E)-2-cyano-vinyl)-5-methyl-phenyl]-(R)-phosphinic acid methyl ester]	0.7 ± 0.3	1.4 ± 0.4	0.7 ± 0.2	did not reach an IC50	1	1 ± 0.4	1	1.2 nM	160 to 4670	0.5 to 15.5						EC50 ([2]; MOLT-4, read-out: Average EC50 Values ± Standard Deviation, host MOLT-4, virus IIIB): 0.7 ± 0.1 nM; CC50 at 4 days [3]: 26500 ± 500 nM; CC50 at 12 days [4]: 23500 ± 1610 nM; IC50 ([5]; Average IC50 Values ± Standard Deviation, DNA Pol Alpha, Table 5): 146000 ± 44500 nM; IC50 ([5]; Mean IC50 Values ± Standard Deviation, DNA Pol Alpha, Table 6, N=4): 146000 ± 44500 nM; EC50 ([6]; Human immunodeficiency virus 1, MT4, read-out: EC50, BH10, Example 16 comparative tables, unit inferred, several lines per compound): 1 ± 0.5 nM; EC50 ([6]; read-out: EC50, BH10, Example 16 comparative tables, unit inferred, several lines per compound): 0.7 nM; CC50 at 12 days [7]: 25700 ± 3260 nM
CO[P@](=O)(c1cc(C)cc(/C=C/C#N)c1)c1c(C(N)=O)[nH]c2ccc(Cl)cc12 [Compound III, (2-Carbamoyl-5-chloro-1H-indol-3-yl)-[3-((E)-2-cyano-vinyl)-5-methyl-phenyl]-(R)-phosphinic acid methyl ester]	0.9 ± 0.4	1.5 ± 0.3	0.9 ± 0.2	did not reach an IC50	1.2	1.2 ± 0.6	1	~1 nM and 1 nM	130 to 2990	0.6 to 13.7	0.6 ± 0.1	24600 ± 1900	31500 ± 3370	159000 ± 84300	23500 ± 1510	
O=C1Nc2ccc(Cl)cc2C(C#CC2CC2)(C(F)(F)F)O1 (stereo not drawn) [EFV, 6-chloro-4-cyclopropylethynyl-4-trifluoromethyl-1,4-dihydro-2H-3,1-benzoxazin-2-one, reference compound]	41.4 ± 36.9	61.2 ± 33.8		did not reach an IC50	~1	1.2 ± 0.8			≥ 20		0.9 ± 0.2	23200 ± 1000	75700 ± 12400	109000 ± 40900	80600 ± 12100	IC50 ([5]; Table 6, N=4, read-out: Mean IC50 Values ± Standard Deviation, DNA Pol Alpha): 109000 ± 40900 nM
